Tests used:
Format in all cases: cell-based
[1] = system: KMS-28BM cells (myeloma cell line); assay: Cell death inducing effect on KMS-28BM cells, trypan blue staining; conditions: KMS-28BM (myeloma), cell viability
Experimental: (§1) KMS-28BM cells (myeloma cell line) were cultured under 5% CO2 at 37° C. The culture medium used RPMI-1640 medium with 100 μg/mL penicillin, 100 U/mL streptomycin and fetal bovine serum. KMS-28BM cells were seeded into 96-well plates and incubated with each concentration of the compounds was added, and cell viability was determined by the trypan blue staining.
(§2) For controls, only 0.5% DMSO (diluted in PBS) used to dissolve the compounds was added. For each concentration, each bar line is indicated by an arrow with the sign “n, a, 1, 2, 3, 4, 5, 6, 7, 8, 9, 10, 11, 12” from left to right. The “1, 3, 5, 7, 9, 11” are omitted from the graph, but the sign “1” shall be indicated by an arrow between the signs “a” and “2”, the sign “3” between the signs “2” and “4”, and other odd numbers shall likewise be indicated by arrows between even numbers before and after.
(§3) The sign “n” is the norathyriol (formula (n)) administration group, the sign “a” is the mangiferin 8a (formula (a)) administration group, the sign “1” is the yk-7 (formula (1)) administration group, the sign “2” is the yk-8-1 (formula (2)) administration group, the sign “3” is the yk-8-3 (formula (3)) administration group, the sign “4” is the M7 (formula (4)) administration group, the sign “5” is the M9 (formula (5)) administration group, the sign “6” is the M11 (formula (6)) administration group, the sign “7” is the M12 (formula (7)) administration group, the sign “8” is the M14 (formula (8)) administration group, the sign “9” is the M15 (formula (9)) administration group, the sign “10” is the M16 (formula (10)) administration group, the sign “11” is the M18 (formula (11)) administration group, the sign “12” is the M19 (formula (12)) administration group, respectively. The IC50 values for each compound is also listed in the upper right corner of the figure.

phospho-IKK = assay: Immunoblotting of phospho-IKK in KMS-28BM cells; conditions: 72 h, vs control, same concentrations as for phospho-NIK (0.005-100 μM)
Experimental: (§4) Immunoblotting was performed on KMS-28BM cells to investigate the inhibitory effect of each compound administration on NIK inhibition and the activation of IKK, NF-κB p52, and NF-κB p65, which are downstream signals of NIK. As a result, inhibition of NIK activation, inhibition of IKK activity, and inhibition of nuclear translocation of NF-κB p52 and NF-κB p65 were observed (FIG. 15 and FIG. 16).
(§5) As a control, compounds untreated KMS-28BM cells were seeded in 150 cm^2 flasks and incubated for 72 h at 37° C. and 5% CO2. KMS-28BM cells were seeded into 150 cm^2 flasks and pre-cultured for 24 h. After incubation, KMS-28BM cells were treated with […], 1 μM norathyriol, 0.5 μM M7 (formula (4)), 1 μM M8 (mangiferin 8a: listed in duplicate), 0.2 μM M9 (formula (5)), 5 μM yk-7 (formula (1)), 0.5 μM yk-8-3 (formula (3)) and 100 μM yk-8-1 (formula (2)) at final concentrations, and incubated for 72 h at 37° C. and 5% CO2. In addition, KMS-28BM cells were also treated with 0.5 μM M19 (formula (12)), 0.5 μM M18 (formula (11)), 0.005 μM M16 (formula (10)), […] (formula (9)), 0.005 μM M14 (formula (8)), 0.05 μM M12 (formula (7)) and […] (formula (6)) at the final concentrations, and incubated for 72 h at 37° C. and 5% CO2. Proteins were extracted from these cell suspensions with cell lysate and used as samples.
(§6) The nucleus and cytoplasmic substrate were separated from the cells using the ProteoExtract (registered trademark) Subcellular Proteome Extraction Kit from Merck Ltd. to extract the cytoplasmic and nuclear fractions.
(§7) After SDS-PAGE, each sample was transferred to a PVDF membrane and examined using anti-phospho-NIK, anti-NIK, anti-phospho-IKK, anti-IKK, anti-P-actin, anti-NF-κB p52 and anti-NF-κB p65 antibody, and anti-Lamin antibody.
(§8) The antibody species is indicated in the vertical direction. Specifically, for anti-phospho-NIK antibody, “Phospho-NIK” was used, for anti-NIK antibody, “NIK” was used, for anti-phospho-IKK antibody, “Phospho-IKK” was used, for anti-IKK antibody, “IKK” was used, for anti-p-actin antibody, “p-actin” was used, for anti-NF-κB p52 antibody, “NF-κB p52 nuclear” was used, for anti-NF-κB p65 antibody, “NF-κB p65 nuclear” was used, and for anti-Lamin antibody, “Lamin” was used.

NF-κB p52 nuclear = assay: Immunoblotting of NF-κB p52 nuclear in KMS-28BM cells; conditions: nuclear fraction, 72 h, same concentrations (0.005-100 μM)
Experimental: as §4, §5, §6, §7, §8

[2] = system: L363 cells (myeloma cell line); assay: Cell death inducing effect on L363 cells, trypan blue staining
Experimental: as §1, with “L363” for “KMS-28BM”
as §2, §3

phospho-NIK = molecular target: T1, phospho-NIK (Homo sapiens, UniProt Q99558); assay: Immunoblotting of phospho-NIK in KMS-28BM cells; conditions: 72 h, vs control, 1 μM mangiferin 8a/M8, 1 μM norathyriol, 0.5 μM M7, 0.2 μM M9, 5 μM yk-7, 0.5 μM yk-8-3, 100 μM yk-8-1, 0.5 μM M19, M18, M11, 0.005 μM M16, M15, M14, 0.05 μM M12
T1 construct: Proteins were extracted from these cell suspensions with cell lysate and used as samples; endogenous in cells; host or cells: KMS-28BM (myeloma)
T1 sequence (Q99558 whole entry): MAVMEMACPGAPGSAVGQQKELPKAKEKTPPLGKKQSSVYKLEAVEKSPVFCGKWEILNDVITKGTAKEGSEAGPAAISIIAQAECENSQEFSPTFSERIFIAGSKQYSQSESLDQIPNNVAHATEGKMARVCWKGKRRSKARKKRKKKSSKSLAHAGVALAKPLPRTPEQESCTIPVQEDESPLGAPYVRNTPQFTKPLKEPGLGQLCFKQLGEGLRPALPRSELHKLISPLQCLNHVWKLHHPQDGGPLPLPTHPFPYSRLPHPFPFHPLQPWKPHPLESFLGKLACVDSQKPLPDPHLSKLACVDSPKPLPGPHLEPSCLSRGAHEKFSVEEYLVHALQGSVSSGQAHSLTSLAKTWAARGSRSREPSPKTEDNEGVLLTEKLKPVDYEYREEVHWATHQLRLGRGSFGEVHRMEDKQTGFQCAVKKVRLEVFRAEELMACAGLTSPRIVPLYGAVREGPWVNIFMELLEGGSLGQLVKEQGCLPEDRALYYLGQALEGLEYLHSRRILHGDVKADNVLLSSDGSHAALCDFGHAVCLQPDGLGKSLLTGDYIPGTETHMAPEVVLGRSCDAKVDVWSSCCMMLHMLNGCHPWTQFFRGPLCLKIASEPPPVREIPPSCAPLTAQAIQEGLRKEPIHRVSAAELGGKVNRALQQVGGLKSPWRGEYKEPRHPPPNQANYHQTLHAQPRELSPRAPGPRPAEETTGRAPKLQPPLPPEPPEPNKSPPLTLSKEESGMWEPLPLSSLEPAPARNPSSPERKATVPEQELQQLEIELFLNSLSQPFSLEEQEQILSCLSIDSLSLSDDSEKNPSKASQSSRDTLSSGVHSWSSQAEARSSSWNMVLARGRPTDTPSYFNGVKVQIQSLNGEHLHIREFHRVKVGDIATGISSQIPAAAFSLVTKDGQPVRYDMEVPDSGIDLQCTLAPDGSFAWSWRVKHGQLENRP
Experimental: as §4, §5, §6, §7, §8

[3] = Homo sapiens, L-363, cell viability

Row | Compound | phospho-NIK band density (anti-phospho-NIK antibody) (phospho-NIK) | IC50 [1] [nM] | phospho-IKK band density (anti-phospho-IKK antibody) (phospho-IKK) | NF-κB p52 nuclear (NF-κB p52 nuclear) | IC50 [2, 3] [nM] | IC50 ([2]; cell viability) [nM]
1 | CCCCC(=O)OC[C@H]1O[C@@H](c2c(OC(=O)CCCC)cc3oc4cc(OC(=O)CCCC)c(OC(=O)CCCC)cc4c(=O)c3c2OC(=O)CCCC)[C@H](OC(=O)CCCC)[C@@H](OC(=O)CCCC)[C@@H]1OC(=O)CCCC [yk-8-1, 1,3,2′,3′,4′,6,6′,7-octa-O-valerylmangiferin] | decrease in band density | > 100000 | decrease in band density | decreased | – | > 100000
2 | O=c1c2cc(O)c(O)cc2oc2cc(O)cc(O)c12 [norathyriol, reference compound] | decrease in band density | 1500 | decrease in band density | decreased | 5800 | –
3 | 1,2′,3′,4′,6-penta-O-propionylmangiferin [Compound 8a, reference compound] | decrease in band density | 2170 | decrease in band density | decreased | – | 5600
4 | CCCCC(=O)OC[C@H]1O[C@@H](c2c(O)cc3oc4cc(O)c(O)cc4c(=O)c3c2O)[C@H](OC(=O)CCCC)[C@@H](OC(=O)CCCC)[C@@H]1OC(=O)CCCC [yk-7, 2′,3′,4′,6′-tetra-O-valerylmangiferin] | decrease in band density | 5300 | decrease in band density | decreased | 5700 | –
5 | CCCCC(=O)OC[C@H]1O[C@@H](c2c(O)cc3oc4cc(O)c(O)cc4c(=O)c3c2OC(=O)CCCC)[C@H](OC(=O)CCCC)[C@@H](OC(=O)CCCC)[C@@H]1OC(=O)CCCC [yk-8-3, 1,2′,3′,4′,6-penta-O-valerylmangiferin] | decrease in band density | 570 | decrease in band density | decreased | 1400 | –

The next lines start with results.

Row | phospho-NIK band density (anti-phospho-NIK antibody) (phospho-NIK) | Compound | IC50 [1] [nM] | phospho-IKK band density (anti-phospho-IKK antibody) (phospho-IKK) | NF-κB p52 nuclear (NF-κB p52 nuclear) | IC50 [2, 3] [nM] | IC50 ([2]; cell viability) [nM]
6 | decrease in band density | CCCC(=O)OC[C@H]1O[C@@H](c2c(O)cc3oc4cc(O)c(O)cc4c(=O)c3c2OC(=O)CCC)[C@H](OC(=O)CCC)[C@@H](OC(=O)CCC)[C@@H]1OC(=O)CCC [Compound M12, 1,2′,3′,4′,6-penta-O-butyrylmangiferin] | 210 | decrease in band density | decreased | 89 | –
7 | decrease in band density | CCC(=O)OC[C@H]1O[C@@H](c2c(OC(=O)CC)cc3oc4cc(OC(=O)CC)c(OC(=O)CC)cc4c(=O)c3c2OC(=O)CC)[C@H](OC(=O)CC)[C@@H](OC(=O)CC)[C@@H]1OC(=O)CC [Compound M7, 1,3,2′,3′,4′,6,6′,7-octa-O-propionylmangiferin] | 770 | decrease in band density | decreased | 5100 | –
8 | decrease in band density | CCCC(=O)OC[C@H]1O[C@@H](c2c(OC(=O)CCC)cc3oc4cc(OC(=O)CCC)c(OC(=O)CCC)cc4c(=O)c3c2OC(=O)CCC)[C@H](OC(=O)CCC)[C@@H](OC(=O)CCC)[C@@H]1OC(=O)CCC [Compound M11, 1,3,2′,3′,4′,6,6′,7-octa-O-butyrylmangiferin] | 1910 | decrease in band density | decreased | – | 970
9 | decrease in band density | CC(C)(C)C(=O)OC[C@H]1O[C@@H](c2c(O)cc3oc4cc(O)c(O)cc4c(=O)c3c2O)[C@H](OC(=O)C(C)(C)C)[C@@H](OC(=O)C(C)(C)C)[C@@H]1OC(=O)C(C)(C)C [Compound M15, 2′,3′,4′,6′-tetra-O-pivaloylmangiferin] | 170 | decrease in band density | decreased | 91 | –
10 | decrease in band density | O=c1c2cc(O)c(O)cc2oc2cc(O)cc(OCCO)c12 [Compound M18, 3,6,7-trihydroxy-1-(2-hydroxyethoxy)-9H-xanthen-9-one] | 890 | decrease in band density | decreased | 4700 | –
11 | decrease in band density | CCCC(=O)OC[C@H]1O[C@@H](c2c(O)cc3oc4cc(O)c(O)cc4c(=O)c3c2O)[C@H](OC(=O)CCC)[C@@H](OC(=O)CCC)[C@@H]1OC(=O)CCC [Compound M14, 2′,3′,4′,6′-tetra-O-butyrylmangiferin] | 80 | decrease in band density | decreased | 29 | –
12 | decrease in band density | C=CCOc1cc(O)cc2oc3cc(O)c(O)cc3c(=O)c12 [Compound M19, 1-allyloxy-3,6,7-trihydroxy-9H-xanthen-9-one] | 2100 | decrease in band density | decreased | 7200 | –
13 | decrease in band density | CCCCO[C@@H]1[C@@H](OCCCC)[C@H](c2c(O)cc3oc4cc(O)c(O)cc4c(=O)c3c2O)O[C@H](COC(=O)CCC)[C@H]1OC(=O)CCC [Compound M16, 2′,3′-di-O-butyl-4′,6′-di-O-butyrylmangiferin] | 70 | decrease in band density | decreased | 21 | –
14 | decrease in band density | CCC(=O)OC[C@H]1O[C@@H](c2c(O)cc3oc4cc(O)c(O)cc4c(=O)c3c2O)[C@H](OC(=O)CC)[C@@H](OC(=O)CC)[C@@H]1OC(=O)CC [Compound M9, 2′,3′,4′,6′-tetra-O-propionylmangiferin] | 210 | decrease in band density | decreased | 620 | –
